Assay results as given in PMC9658561, “[^99mTc]Tc-PSMA-T4—Novel SPECT Tracer for Metastatic PCa: From Bench to Clinic” (Molecules, 2022).
Where two headings read alike, the source gives them in different places.

How the values were obtained:
[1] = target: T1, PSMA (Homo sapiens, UniProt Q04609); test: Competitive binding on LNCaP cell membranes with [131I]I-MIP1095 as competitive radioligand; settings: [131I]I-MIP1095 radioligand, 2 h at 37 °C
T1 construct: host or cells: LNCaP cell membranes
Experimental: Cells from prostate cancer carcinomas: LNCaP and PC3, were isolated like previously described. The cells were harvested using 1 mL/flask of Trypsin-EDTA solution and centrifuged (1500 rpm for 15 min (LNCaP) and 1300 rpm for 6 min (PC3)). Received cell sediment was resuspended in 9.7 mM NaHCO3 containing 0.3 mM NaH2PO4 and incubated for 30 min at 4 °C. The solution was dispensed on 1.5 mL Eppendorf and centrifuged (13,500 rpm for 30 min). The supernatant was removed, the pellet was resuspended in 50 mM Tris-HCl Buffer (pH 7.4) and homogenized using a syringe with a thin needle. The solution was centrifuged (13,500 rpm for 30 min), and the final pellet was suspended in 50 mM Tris-HCl buffer (pH 7.4) and transferred to −70 °C.
The LNCaP cell membranes were distributed (in four replicates) in the constant amount on special MultiScreen™ 96 well assay plates. 100 µL of un-supplemented RPMI 1640 medium and 50 µL of increasing concentration of the unlabeled PSMA inhibitors was added to each well. As a control, 50 µL of PBS in 100 µL of media was used. After 15 min incubation at 37 °C, 50 µL of [^131I]I-MIP-1095 was added. Plates were incubated for 2 h at 37 °C. After an appropriate time, the supernatant solution was filtered under vacuum, and the membranes were washed twice with PBS solution. Filters and membranes were extruded to the tubes using MultiScreen Multiple Punch. The radioactivity of the filters was measured using a Wallac Wizard 1470 γ counter. The IC50 was evaluated and determined using GraphPad Prism 9.4 statistic program. As a control, PSMA-11 was used.

[2] = target: PSMA; parameters: method as in PMID 24983957; settings: cited from earlier work
[3] = system: PSMA; parameters: method as in PMID 28450562; settings: affinity for PSMA ref 53; cited from earlier work

T1 sequence (Q04609 whole entry): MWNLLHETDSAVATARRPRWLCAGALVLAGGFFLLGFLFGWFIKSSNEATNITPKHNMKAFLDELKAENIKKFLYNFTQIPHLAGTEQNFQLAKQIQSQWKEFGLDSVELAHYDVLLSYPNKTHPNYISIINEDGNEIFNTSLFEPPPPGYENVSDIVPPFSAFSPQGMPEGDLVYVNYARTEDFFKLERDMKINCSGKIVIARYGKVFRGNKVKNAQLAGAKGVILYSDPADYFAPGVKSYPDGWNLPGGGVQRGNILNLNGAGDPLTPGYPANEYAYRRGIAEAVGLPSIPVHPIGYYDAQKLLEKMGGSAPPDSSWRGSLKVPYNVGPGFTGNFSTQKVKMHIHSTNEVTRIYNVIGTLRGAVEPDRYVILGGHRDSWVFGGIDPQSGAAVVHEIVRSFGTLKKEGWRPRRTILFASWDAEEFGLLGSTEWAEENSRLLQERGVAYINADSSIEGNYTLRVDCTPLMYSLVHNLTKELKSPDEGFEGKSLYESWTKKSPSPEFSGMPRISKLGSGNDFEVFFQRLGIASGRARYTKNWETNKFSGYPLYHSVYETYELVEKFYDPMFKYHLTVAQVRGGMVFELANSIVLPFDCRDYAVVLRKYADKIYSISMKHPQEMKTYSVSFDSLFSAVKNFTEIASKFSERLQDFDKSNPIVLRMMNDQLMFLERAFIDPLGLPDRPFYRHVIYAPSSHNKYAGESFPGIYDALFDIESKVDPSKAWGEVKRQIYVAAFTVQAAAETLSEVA

| SMILES | IC50 [1] | also measured |
| --- | --- | --- |
| O=C(O)CCc1ccc(O)c(CN(CCN(CC(=O)O)Cc2cc(CCC(=O)NCCCCCC(=O)NCCCC[C@H](NC(=O)N[C@@H](CCC(=O)O)C(=O)O)C(=O)O)ccc2O)CC(=O)O)c1 [PSMA-11] | 715 nM | Kd [2]: 11.4 nM |
| NNc1ccc(C(=O)NCCCCCC(=O)N[C@@H](Cc2c[nH]c3ccccc23)C(=O)NCCCC[C@H](NC(=O)N[C@@H](CCC(=O)O)C(=O)O)C(=O)O)cn1 [PSMA-T3, Glu-CO-Lys-LTrp-6Ahx-HYNIC] | 74.6 nM |  |
| NNc1ccc(C(=O)NC[C@H]2CC[C@H](C(=O)N[C@@H](Cc3c[nH]c4ccccc34)C(=O)NCCCC[C@H](NC(=O)N[C@@H](CCC(=O)O)C(=O)O)C(=O)O)CC2)cn1 [PSMA-T4, (S)-2-{3-[(S)-5-[(S)-3-(1H-Indol-3-yl)-2-({(1r,4r)-4-[(6-hydrazino-nicotinoylamino)methyl]cyclohexyl}carbonylamino)propionylamino]-1-carboxypentyl]ureido}glutaric acid] | 79.5 nM |  |
| O.O=C([O-])CN(CCN(CC(=O)[O-])Cc1cc(CCC(=O)O)ccc1O)Cc1cc(CCC(=O)NCCCCCC(=O)NCCCC[C@H](NC(=O)N[C@@H](CCC(=O)O)C(=O)O)C(=O)O)ccc1[O-].[Ga+3] [[^68Ga]Ga-PSMA-11, Glu-NH-CO-Lys-(ahx)-HBED-CC-[^68Ga]Ga] |  | Kd ([2]; literature value ref 15): 11.4 ± 7.1 nM |
| O=C(O)CC[C@H](NC(=O)N[C@@H](CCCCNC(=O)Nc1ccc([131I])cc1)C(=O)O)C(=O)O [[^131I]I-MIP-1095, (2S)-2-({[(1S)-1-carboxy-5-({[4-[¹³¹I]iodophenyl]carbamoyl}amino)pentyl]carbamoyl}amino)pentanedioic acid] |  | IC50 [3]: 0.3 nM |
